Laboratory results as given in patent publication US20130203649A1, “INHIBITORS OF TLR SIGNALING BY TARGETING TIR DOMAIN INTERFACES” (UNIVERSITY OF MARYLAND, BALTIMORE, priority 2012, published 2013).
Residues, ends and D or L forms follow the SMILES beside them. No end group written: not given here.

How the values were obtained:
TLR4 [1] = assay: LPS-induced MAPK (ERK, JNK, p38) activation in mouse macrophages (Western analysis); assay type: cell-based; conditions: for LPS-induced ERK phosphorylation / LPS-induced JNK activation: 30 min LPS 10 ng/ml
Experimental: Cellular protein extracts were isolated by addition of 240 μL per well cold lysate buffer (20 mM Tris, 50 mM NaCl, 1.5 mM MgCl2, 2 mM EDTA, 10 mM NaF, 2 Mm DTT, 1 mM Na3VO4, 1% Triton). Cells were incubated with lysis solution for 30 min on agitator at 4° C. Lysate was then collected and centrifuged at 14,000 g for 10 minutes at 4° C. After quantification using BioRad protein assay, protein samples were added to Laemmli buffer and then boiled for 10 min. Samples were then resolved by SDS-10% PAGE in Tris/glycine/SDS buffer (25 mM Tris, 250 mM glycine, 0.1% SDS), and transferred onto Immobilon P transfer membranes (Millipore, Bedford, Mass.) (100 V, 1.5 h, 4° C.). Membranes were blocked for 1 h in TBS-T (20 mM Tris-HCl, 150 mM NaCl, 0.1% Tween 20) containing 5% nonfat milk, then probed for overnight at 4° C. with the respective antibodies (Abs) (dilution 1:1000 in TBS-T with 2% BSA). After washing in TBS-T, membranes were incubated with secondary HRP-conjugated, donkey anti-rabbit IgG (1:10,000 dilution in TBS-T with 5% nonfat milk) for 1 h at room temperature. Membranes washed five times in TBS-T before development with ECL reagents (GE Healthcare) according to manufacturer's directions.
HEK293T cells were transfected with indicated plasmids using Superfect Transfection Reagent (Qiagen). Twenty-four hours posttransfection, the cells were lysed using the buffer containing 20 mM HEPES (pH 7.4), 150 mM NaCl, 10 mM NaF, 2 mM Na3VO4, 1 mM EDTA, 1 mM EGTA, 0.5% Triton X-100, 0.1 M DTT, 1 mM PMSF, and protease inhibitor mixture (Roche, Indianapolis, Ind.). Rabbit Ab against phospho-ERK, phospho-JNK, MyD88 (D80F5), STAT1-Y701, total STAT1, and GAPDH were purchased from Cell Signaling Technology (Beverly, Mass.). Rabbit anti-phospho-p38 Ab was purchased from Promega (Madison, Wis.). Goat anti-TLR4 (M−16), rabbit anti-TLR4 (H-80), anti-HA-HRP (F-7), and rabbit anti-b-actin Ab were purchased from Santa Cruz Biotechnology. Mouse anti-Flag M2 and rabbit anti-HA Ab were from Sigma-Aldrich. GFP Ab (A1122) was from Invitrogen. Protein was quantified using Bio-Rad protein quantification kit. Equal amount of protein was loaded and analyzed by 10% SDS-PAGE and immunoblotting. The cell extracts containing equal amount of protein were incubated with 1 μg Ab for 2 h, followed by 4-h incubation with 25 μl protein G agarose beads (Roche); the beads were then washed four times with lysis buffer, boiled in […] sample loading buffer, and analyzed by immunoblotting.
We next examined whether TRAM peptides inhibit the TLR4-mediated p38, ERK, and JNK MAPK activation. Murine macrophages pretreated with peptides for 30 min were challenged with LPS. Cell lysates were collected 30 min post-stimulation and analyzed for MAPK phosphorylation by Western analysis. Consistent with peptide effects on steady-state mRNA, both TM4 and TM6 inhibited activation of all three MAPKs (FIG. 5C). The inhibition of MAPKs by TM4 or TM6 was long lasting; it persisted for at least 1 h after LPS stimulation (data not shown). To characterize further the effects of TRAM peptides on MAPKs, murine macrophages were treated with TRAM peptides, but not challenged by LPS.

TLR4 [2] = assay: Inhibition of TLR4 signaling in thioglycollate-elicited mouse macrophages (effective concentration, overall inhibitory activity); assay type: cell-based; conditions: for Inhibition of TLR4 signaling (overall): LPS-stimulated mouse macrophages; for Effective conc.: TLR4 pathway, thioglycollate-elicited mouse macrophages
Summary of the method: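 Thioglycollate-elicited peritoneal macrophages from C57BL/6J mice, adherent after overnight culture in RPMI with 2% FBS; cell-permeating (Antennapedia-fused) decoy peptides added 30 min before agonist. TLR4 stimulated with E. coli K235 LPS at 100 ng/ml final.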

Compound | LPS-induced ERK phosphorylation (TLR4 [1]; 20 μM peptide) | LPS-induced JNK activation (TLR4 [1]; 20 μM peptide) | LPS-induced activation of p38 and ERK MAPKs (TLR4 [1]; 20 μM peptide, LPS 30 min) | Inhibition of TLR4 signaling (overall) (TLR4 [2]) | Effective conc. (TLR4 [2]) [µM] | LPS-induced p38, ERK, and JNK MAPK activation (TLR4 [1]; lysates 30 min after LPS)
RQIKIWFQNRRMKWKKPGFLRDPWCKYQML [TR6] | potently inhibited | apparent absence of JNK inhibition | potently inhibited | potently inhibited |  | 
RQIKIWFQNRRMKWKKAAYPPELRFMYYVD [TR9] | potently inhibited | inhibited |  | potently inhibited | 20 | 
RQIKIWFQNRRMKWKKEGSQASLRCF [TR3] | potently inhibited | apparent absence of JNK inhibition |  | potently inhibited |  | 
RQIKIWFQNRRMKWKKCLQDAIDHSGFT [TF5] |  |  |  |  | 20 | inhibit
CC[C@H](C)[C@H](NC(=O)[C@H](CCCCN)NC(=O)[C@@H](NC(=O)[C@H](CCC(N)=O)NC(=O)[C@@H](N)CCCNC(=N)N)[C@@H](C)CC)C(=O)N[C@@H](Cc1c[nH]c2ccccc12)C(=O)N[C@@H](Cc1ccccc1)C(=O)N[C@@H](CCC(N)=O)C(=O)N[C@@H](CC(N)=O)C(=O)N[C@@H](CCCNC(=N)N)C(=O)N[C@@H](CCCNC(=N)N)C(=O)N[C@@H](CCSC)C(=O)N[C@@H](CCCCN)C(=O)N[C@@H](Cc1c[nH]c2ccccc12)C(=O)N[C@@H](CCCCN)C(=O)N[C@@H](CCCCN)C(=O)N[C@@H](CCC(=O)O)C(=O)N[C@@H](CC(C)C)C(=O)N[C@@H](CS)C(=O)N[C@@H](CCC(N)=O)C(=O)N[C@@H](C)C(=O)N[C@@H](CC(C)C)C(=O)N[C@@H](CO)C(=O)N[C@@H](CCCNC(=N)N)C(=O)N[C@@H](CO)C(=O)N[C@@H](Cc1c[nH]cn1)C(=O)N[C@@H](CS)C(=O)N[C@@H](CCCNC(=N)N)C(=O)O [TR5] (H-RQIKIWFQNRRMKWKKELCQALSRSHCR-OH) | potently inhibited |  |  | potently inhibited | 20 | 
RQIKIWFQNRRMKWKKGGFYQVKEAVIHY [TR11] | potently inhibited | inhibited |  | potently inhibited | 20 | 
